From US9249129B2, “Morpholino substituted urea derivatives as mTOR inhibitors” (CELLZOME LIMITED, priority 2010, dated 2016)

Assays:
Test in all cases: kinobeads assay with mass spectrometry detection of kinases (kinase selectivity profile)
Type in all cases: binding
kinases (kinome) [1] = biological target: T1, kinases (kinome) (Homo sapiens, UniProt Q8NEB9); conditions: PIK3C3 (Lipid Kinase), IPI00873758
T1 construct: determined in kinobeads assays with mass spectrometry detection of kinases as described previously; endogenous in cells; host or cells: cell lysate
Description: (§1) The protein kinase complement of the human genome (the kinome) was described previously (Manning et al., 2002. Science 298(5600):1912-1934). Sequence accession numbers are defined by the International Protein Index (IPI) (Kersey et al., 2004. Proteomics 4(7):1985-1988).

kinases (kinome) [2] = biological target: T2, kinases (kinome) (Homo sapiens, UniProt Q13535); conditions: ATR (Atypical), IPI00412298; 0.1 μM ranges
T2 construct: determined in kinobeads assays with mass spectrometry detection of kinases as described previously; endogenous in cells; host or cells: cell lysate
Description: as §1

kinases (kinome) [3] = biological target: T3, kinases (kinome) (Homo sapiens, UniProt Q13418); conditions: ILK (TKL), IPI00013219
T3 construct: determined in kinobeads assays with mass spectrometry detection of kinases as described previously; endogenous in cells; host or cells: cell lysate
T3 sequence (Q13418 1-452): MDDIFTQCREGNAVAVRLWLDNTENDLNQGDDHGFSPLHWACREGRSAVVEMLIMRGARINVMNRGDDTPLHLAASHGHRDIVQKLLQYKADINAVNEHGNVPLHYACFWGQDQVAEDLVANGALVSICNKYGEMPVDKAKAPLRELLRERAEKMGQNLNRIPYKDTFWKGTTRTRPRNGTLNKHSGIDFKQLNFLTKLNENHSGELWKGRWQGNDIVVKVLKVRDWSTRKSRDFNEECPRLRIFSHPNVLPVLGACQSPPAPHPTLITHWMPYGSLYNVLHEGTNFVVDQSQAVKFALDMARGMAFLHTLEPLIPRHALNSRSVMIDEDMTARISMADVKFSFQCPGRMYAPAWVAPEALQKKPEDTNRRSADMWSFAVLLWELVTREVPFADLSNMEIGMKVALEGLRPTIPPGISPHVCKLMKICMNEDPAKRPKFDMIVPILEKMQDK
Description: as §1

kinases (kinome) [4] = biological target: T4, kinases (kinome) (Homo sapiens, UniProt P36894); conditions: BMPR1A (TKL), IPI00005731
T4 construct: determined in kinobeads assays with mass spectrometry detection of kinases as described previously; endogenous in cells; host or cells: cell lysate
Description: as §1

kinases (kinome) [5] = biological target: T5, kinases (kinome) (Homo sapiens, UniProt P52333); conditions: JAK3 (TK), IPI00219418
T5 construct: determined in kinobeads assays with mass spectrometry detection of kinases as described previously; endogenous in cells; host or cells: cell lysate
T5 sequence (P52333 1-1124): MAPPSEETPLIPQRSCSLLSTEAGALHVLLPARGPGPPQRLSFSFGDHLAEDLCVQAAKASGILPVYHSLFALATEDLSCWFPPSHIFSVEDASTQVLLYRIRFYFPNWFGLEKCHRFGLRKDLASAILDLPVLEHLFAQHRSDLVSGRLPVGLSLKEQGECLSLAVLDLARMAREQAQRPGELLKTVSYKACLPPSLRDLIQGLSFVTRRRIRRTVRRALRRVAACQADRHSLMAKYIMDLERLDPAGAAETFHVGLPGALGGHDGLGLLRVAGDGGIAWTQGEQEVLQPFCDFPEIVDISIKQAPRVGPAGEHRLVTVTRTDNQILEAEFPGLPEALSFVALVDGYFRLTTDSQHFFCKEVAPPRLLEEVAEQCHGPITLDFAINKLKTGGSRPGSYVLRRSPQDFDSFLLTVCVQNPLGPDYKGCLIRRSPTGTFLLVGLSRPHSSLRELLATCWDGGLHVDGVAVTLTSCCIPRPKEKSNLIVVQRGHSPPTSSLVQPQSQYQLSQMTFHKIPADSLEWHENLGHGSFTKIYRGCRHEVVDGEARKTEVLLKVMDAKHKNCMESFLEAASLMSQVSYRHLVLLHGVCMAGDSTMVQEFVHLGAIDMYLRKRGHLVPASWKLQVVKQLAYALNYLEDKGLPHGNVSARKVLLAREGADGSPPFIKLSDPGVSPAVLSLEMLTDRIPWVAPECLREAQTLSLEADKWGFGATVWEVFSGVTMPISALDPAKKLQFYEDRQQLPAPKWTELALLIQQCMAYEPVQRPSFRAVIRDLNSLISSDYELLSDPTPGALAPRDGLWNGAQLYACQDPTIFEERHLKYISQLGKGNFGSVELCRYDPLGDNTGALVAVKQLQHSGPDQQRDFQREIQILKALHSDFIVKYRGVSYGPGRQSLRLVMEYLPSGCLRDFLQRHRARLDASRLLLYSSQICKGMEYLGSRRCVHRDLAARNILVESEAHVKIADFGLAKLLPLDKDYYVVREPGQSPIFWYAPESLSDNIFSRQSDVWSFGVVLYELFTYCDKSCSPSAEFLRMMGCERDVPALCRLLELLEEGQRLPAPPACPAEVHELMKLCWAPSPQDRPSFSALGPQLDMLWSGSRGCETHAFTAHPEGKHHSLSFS
Description: as §1

T4 sequence (P36894 24-532): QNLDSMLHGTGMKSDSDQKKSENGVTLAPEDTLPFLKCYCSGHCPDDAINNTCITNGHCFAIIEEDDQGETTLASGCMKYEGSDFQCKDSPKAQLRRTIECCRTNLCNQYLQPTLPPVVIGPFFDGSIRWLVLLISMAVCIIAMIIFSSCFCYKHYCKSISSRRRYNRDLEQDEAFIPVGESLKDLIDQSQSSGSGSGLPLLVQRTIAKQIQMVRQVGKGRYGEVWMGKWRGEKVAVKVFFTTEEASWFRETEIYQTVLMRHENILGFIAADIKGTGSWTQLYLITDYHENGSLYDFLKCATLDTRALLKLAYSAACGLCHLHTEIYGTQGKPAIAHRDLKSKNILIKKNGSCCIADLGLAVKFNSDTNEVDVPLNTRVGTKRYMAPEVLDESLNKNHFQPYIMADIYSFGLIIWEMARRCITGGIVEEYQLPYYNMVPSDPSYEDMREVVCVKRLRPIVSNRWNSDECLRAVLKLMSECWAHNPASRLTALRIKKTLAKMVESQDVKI
T1 sequence (Q8NEB9 whole entry): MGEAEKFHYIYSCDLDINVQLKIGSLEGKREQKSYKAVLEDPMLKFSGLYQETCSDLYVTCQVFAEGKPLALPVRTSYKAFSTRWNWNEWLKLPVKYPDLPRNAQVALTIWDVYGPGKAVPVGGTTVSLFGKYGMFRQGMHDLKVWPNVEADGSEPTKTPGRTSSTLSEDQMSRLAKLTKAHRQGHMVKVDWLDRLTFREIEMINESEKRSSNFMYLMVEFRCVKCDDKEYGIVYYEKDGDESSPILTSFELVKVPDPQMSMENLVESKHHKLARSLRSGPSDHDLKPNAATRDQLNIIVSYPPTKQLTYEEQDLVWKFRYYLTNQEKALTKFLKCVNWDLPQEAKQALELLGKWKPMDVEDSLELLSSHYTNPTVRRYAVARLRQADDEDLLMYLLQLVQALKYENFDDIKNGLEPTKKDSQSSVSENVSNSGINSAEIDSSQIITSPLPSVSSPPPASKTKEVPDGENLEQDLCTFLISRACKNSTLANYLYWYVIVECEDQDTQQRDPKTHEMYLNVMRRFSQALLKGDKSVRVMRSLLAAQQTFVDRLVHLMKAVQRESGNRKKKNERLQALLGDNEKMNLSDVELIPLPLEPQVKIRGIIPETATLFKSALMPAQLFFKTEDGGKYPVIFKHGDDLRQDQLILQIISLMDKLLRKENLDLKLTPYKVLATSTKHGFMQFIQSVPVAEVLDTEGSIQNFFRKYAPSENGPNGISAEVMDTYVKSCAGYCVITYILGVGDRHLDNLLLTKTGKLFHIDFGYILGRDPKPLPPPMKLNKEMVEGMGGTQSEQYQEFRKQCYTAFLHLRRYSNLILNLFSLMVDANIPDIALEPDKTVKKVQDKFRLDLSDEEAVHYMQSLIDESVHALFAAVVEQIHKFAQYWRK
T2 sequence (Q13535 whole entry): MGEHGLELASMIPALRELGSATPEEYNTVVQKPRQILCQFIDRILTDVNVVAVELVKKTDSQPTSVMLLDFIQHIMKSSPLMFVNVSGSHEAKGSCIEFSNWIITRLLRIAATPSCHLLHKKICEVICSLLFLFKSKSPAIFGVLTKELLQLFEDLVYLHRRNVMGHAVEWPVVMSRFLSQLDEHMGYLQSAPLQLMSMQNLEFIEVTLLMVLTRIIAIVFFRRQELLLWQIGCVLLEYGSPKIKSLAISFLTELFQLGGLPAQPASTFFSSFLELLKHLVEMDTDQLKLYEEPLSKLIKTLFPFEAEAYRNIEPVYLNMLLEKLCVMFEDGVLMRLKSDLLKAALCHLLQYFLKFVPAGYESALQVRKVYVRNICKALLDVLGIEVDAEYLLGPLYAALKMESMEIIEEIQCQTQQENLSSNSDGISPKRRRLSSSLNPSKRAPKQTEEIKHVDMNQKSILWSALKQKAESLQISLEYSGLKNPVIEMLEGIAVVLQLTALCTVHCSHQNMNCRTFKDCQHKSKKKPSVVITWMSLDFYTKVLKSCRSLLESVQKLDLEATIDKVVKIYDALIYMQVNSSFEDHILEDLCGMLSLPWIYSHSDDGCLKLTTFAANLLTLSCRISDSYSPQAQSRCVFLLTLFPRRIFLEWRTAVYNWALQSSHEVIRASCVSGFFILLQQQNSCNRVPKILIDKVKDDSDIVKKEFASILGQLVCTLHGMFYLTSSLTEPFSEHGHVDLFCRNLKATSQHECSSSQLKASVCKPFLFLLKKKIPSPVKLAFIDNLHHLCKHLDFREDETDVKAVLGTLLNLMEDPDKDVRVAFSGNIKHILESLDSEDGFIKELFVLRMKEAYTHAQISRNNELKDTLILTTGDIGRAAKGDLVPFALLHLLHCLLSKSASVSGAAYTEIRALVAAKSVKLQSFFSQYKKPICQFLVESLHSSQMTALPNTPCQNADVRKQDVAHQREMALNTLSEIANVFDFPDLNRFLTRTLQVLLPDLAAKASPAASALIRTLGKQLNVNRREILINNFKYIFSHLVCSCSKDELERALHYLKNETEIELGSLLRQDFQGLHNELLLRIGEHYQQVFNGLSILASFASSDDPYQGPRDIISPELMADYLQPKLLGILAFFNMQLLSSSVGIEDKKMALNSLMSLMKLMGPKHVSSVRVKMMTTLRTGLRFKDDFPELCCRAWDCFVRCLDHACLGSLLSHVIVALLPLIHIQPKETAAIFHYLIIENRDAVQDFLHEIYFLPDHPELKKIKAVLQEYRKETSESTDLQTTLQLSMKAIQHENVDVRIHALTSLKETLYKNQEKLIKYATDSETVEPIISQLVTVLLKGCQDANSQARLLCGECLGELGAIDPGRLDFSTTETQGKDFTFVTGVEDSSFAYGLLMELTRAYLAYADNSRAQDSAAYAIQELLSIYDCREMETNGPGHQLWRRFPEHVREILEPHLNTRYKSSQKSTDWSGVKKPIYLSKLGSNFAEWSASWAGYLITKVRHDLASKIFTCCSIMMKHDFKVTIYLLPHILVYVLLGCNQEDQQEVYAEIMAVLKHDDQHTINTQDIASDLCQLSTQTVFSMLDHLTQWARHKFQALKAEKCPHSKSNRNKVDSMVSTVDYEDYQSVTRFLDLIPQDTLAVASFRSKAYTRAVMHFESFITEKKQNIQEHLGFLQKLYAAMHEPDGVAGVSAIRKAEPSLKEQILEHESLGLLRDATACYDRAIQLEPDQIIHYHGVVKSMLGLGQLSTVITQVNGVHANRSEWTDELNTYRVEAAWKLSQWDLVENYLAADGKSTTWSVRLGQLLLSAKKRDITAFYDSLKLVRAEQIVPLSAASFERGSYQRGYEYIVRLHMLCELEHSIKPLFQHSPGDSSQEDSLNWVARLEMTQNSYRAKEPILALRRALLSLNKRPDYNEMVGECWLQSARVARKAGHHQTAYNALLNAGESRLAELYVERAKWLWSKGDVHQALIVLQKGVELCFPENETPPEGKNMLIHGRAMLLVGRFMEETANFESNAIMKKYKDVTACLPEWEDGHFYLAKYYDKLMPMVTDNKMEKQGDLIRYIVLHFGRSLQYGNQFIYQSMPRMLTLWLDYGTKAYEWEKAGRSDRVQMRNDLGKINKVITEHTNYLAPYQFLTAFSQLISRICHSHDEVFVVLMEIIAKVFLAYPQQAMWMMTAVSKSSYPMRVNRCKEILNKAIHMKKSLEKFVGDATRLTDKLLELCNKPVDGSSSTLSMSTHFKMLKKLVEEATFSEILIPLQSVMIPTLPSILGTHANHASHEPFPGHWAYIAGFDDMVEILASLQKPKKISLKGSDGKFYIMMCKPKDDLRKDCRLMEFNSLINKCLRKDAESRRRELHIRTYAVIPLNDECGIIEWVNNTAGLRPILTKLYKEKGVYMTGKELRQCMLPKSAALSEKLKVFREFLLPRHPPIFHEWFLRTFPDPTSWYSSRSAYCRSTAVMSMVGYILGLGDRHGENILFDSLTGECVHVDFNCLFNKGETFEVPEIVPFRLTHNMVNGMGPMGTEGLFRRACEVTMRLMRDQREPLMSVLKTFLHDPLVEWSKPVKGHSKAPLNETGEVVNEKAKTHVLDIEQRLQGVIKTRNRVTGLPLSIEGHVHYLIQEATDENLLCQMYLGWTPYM

SMILES	IC50 (kinases (kinome) [1]) [µM]	IC50 (kinases (kinome) [2]) [µM]	IC50 (kinases (kinome) [3]) [µM]	IC50 (kinases (kinome) [4]) [µM]	IC50 (kinases (kinome) [5]) [µM]
C[C@H]1COCCN1c1nc(-c2ccc(NC(=O)NC3CC3)cc2)cc(-c2ccccc2S(C)(=O)=O)n1 [Example 4, (S)-1-cyclopropyl-3-(4-(2-(3-methylmorpholino)-6-(2-(methylsulfonyl)phenyl)pyrimidin-4-yl)phenyl)urea]	> 10	> 10	> 10		
C[C@H]1COCCN1c1cc(-c2ccccc2S(C)(=O)=O)nc(-c2ccc(NC(=O)NC3CC3)cc2)n1 [Example 6, (S)-1-cyclopropyl-3-(4-(4-(3-methylmorpholino)-6-(2-(methylsulfonyl)phenyl)pyrimidin-2-yl)phenyl)urea]				> 10	> 10
C[C@H]1COCCN1c1nc(-c2ccc(NC(=O)N[C@H]3CCC[C@@H]3O)cc2)cc(-c2cc(F)ccc2S(C)(=O)=O)n1 [Example 76, 1-(4-(6-(5-fluoro-2-(methylsulfonyl)phenyl)-2-((S)-3-methylmorpholino)pyrimidin-4-yl)phenyl)-3-((1S,2S)-2-hydroxycyclopentyl)urea]	> 10	> 10	> 10	> 10	> 10
C[C@H]1COCCN1c1nc(-c2ccc(NC(=O)NC3CC3)cc2)cc(-c2cccnc2S(C)(=O)=O)n1 [Example 46, (S)-1-cyclopropyl-3-(4-(2-(3-methylmorpholino)-6-(2-(methylsulfonyl)pyridin-3-yl)pyrimidin-4-yl)phenyl)urea]	> 10	> 10		> 10	> 10
C[C@H]1COCCN1c1cc(-c2ccccn2)nc(-c2ccc(NC(=O)NCCO)cc2)n1 [Example 43, (S)-1-(2-hydroxyethyl)-3-(4-(4-(3-methylmorpholino)-6-(pyridin-2-yl)pyrimidin-2-yl)phenyl)urea]	> 10	> 10	> 10		> 10
C[C@H]1COCCN1c1nc(-c2ccc(NC(=O)NC3CC3)cc2)cc(-c2cc(F)ccc2S(C)(=O)=O)n1 [Example 40, (S)-1-cyclopropyl-3-(4-(6-(5-fluoro-2-(methylsulfonyl)phenyl)-2-(3-methylmorpholino)pyrimidin-4-yl)phenyl)urea]	> 10	1.1 to 1.2	> 10	> 10	> 10
CCNC(=O)Nc1ccc(-c2cc(-c3ccccc3C#N)nc(N3CCOC[C@@H]3C)n2)cc1 [Example 8, (S)-1-(4-(6-(2-cyanophenyl)-2-(3-methylmorpholino)pyrimidin-4-yl)phenyl)-3-ethylurea]			> 10	> 10	
